Nine molecules from patent US20170280720A1, “ARGININE […] INHIBITORS AND USES THEREOF” (EPIZYME, INC., priority 2014, published 2017) can be followed below.

This assay addresses T1, human PRMT1 (Homo sapiens, UniProt Q99873).
T1 construct: GST-tagged PRMT1; made in house; host or cells: High Five insect cells (baculovirus, pFastBacI)
The experiment in a line: PRMT1 biochemical assay (3H-SAM Flashplate, peptide substrate). Particulars: read-out: PRMT1_ IC50. Put shortly: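 FLAG-tagged full-length human PRMT1 (0.5 nM, GST-tagged, insect-cell expressed) preincubated 30 min at RT with compound, then biotinylated histone H4 36-50 peptide (20 nM) plus 200 nM 3H-SAM and 1.5 uM SAM in Bicine pH 7.6, 2% DMSO. 3H-methylated peptide captured on streptavidin Flashplate; IC50 from 3/4-parameter fit.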

T1 sequence (Q99873 with tags, fused parts or gaps): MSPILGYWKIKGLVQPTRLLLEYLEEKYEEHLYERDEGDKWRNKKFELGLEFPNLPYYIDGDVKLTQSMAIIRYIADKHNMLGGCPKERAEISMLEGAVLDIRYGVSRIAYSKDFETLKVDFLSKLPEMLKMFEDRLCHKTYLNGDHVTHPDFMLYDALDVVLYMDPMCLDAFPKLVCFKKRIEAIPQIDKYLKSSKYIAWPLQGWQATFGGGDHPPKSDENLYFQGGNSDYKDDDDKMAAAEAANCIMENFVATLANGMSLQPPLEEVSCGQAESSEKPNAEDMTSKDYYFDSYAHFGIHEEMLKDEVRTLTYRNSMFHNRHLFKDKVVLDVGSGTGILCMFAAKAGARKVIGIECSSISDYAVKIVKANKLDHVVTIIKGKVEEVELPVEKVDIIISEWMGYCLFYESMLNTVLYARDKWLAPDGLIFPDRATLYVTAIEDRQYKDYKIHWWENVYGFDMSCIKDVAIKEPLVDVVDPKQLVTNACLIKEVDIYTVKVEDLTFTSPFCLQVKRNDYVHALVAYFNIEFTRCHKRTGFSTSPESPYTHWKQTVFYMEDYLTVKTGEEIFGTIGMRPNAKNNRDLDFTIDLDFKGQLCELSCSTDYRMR

In general, IC50 refers to the concentration at which inhibition is half-maximal. With `Cc1ccc(-n2cnc3cc(-c4ccc(CNCCN)cc4)ccc32)cc1` [Compound 131], the IC50 is 841 nM. The same measure for `Cc1nn(C(C)C)c2nc(-c3cccc(CN(C)CCN)c3)cc(N3CCOCC3)c12` [Compound 22, N1-(3-(1-isopropyl-3-methyl-4-morpholino-1H-pyrazolo[3,4-b]pyridin-6-yl)benzyl)-N1-methylethane-1,2-diamine]: 95.2 nM. The same measure for `CNCCN(C)Cc1cccc(-c2cc(NS(C)(=O)=O)c3cnn(C(C)C)c3n2)c1` [Compound 170]: 10000 nM. The same measure for `CC(C)n1ncc2c(C(=O)NCc3c(F)cccc3F)cc(-c3cccc(CN(C)CCN)c3)nc21` [Compound 37]: 154 nM.

For the molecule `CC(C)n1ncc2c(C(=O)N3CCc4ccccc4C3)cc(-c3cccc(CN(C)CCN)c3)nc21` [Compound 23], the IC50 is 97.1 nM. Consider `CC(C)n1ncc2c(NC3CC3)cc(-c3cccc(CN(C)CCN)c3)nc21` [Compound 41], for which the IC50 turned out to be 172 nM. Turning to `CNCCN(C)Cc1cccc(-c2cc(NS(=O)(=O)C(F)(F)F)c3cnn(C(C)C)c3n2)c1` [Compound 164], the IC50 was determined as 4500 nM. Then `CC(C)n1cnc2ccc(-c3ccc(CNCCN)cc3)cc21` [Compound 166], with 5090 nM; and `COc1ccc(Cn2cnc3ccc(-c4ccc(CNCCN)cc4)cc32)cc1` [Compound 132], with 848 nM.
